Species: Rattus norvegicus
Assay: DrugMatrix - Regimen: Daily Repeat
Type: toxicity, organism-based, Sprague-Dawley
Set-up: regimen Daily Repeat, gender Male, age 6-8 weeks
Conditions: in vivo, po, 1500 mg/kg, route oral GAVAGE, dose level High, vehicle .5 % CMC; for ABSOLUTE BASOPHIL / ABSOLUTE EOSINOPHIL / ABSOLUTE LYMPHOCYTE / ABSOLUTE MONOCYTE / ABSOLUTE SEGMENTED NEUTROPHIL / BASOPHIL / EOSINOPHIL / HEMATOCRIT / HEMOGLOBIN / LEUKOCYTE COUNT / LYMPHOCYTE / MEAN CORPUSCULAR HEMOGLOBIN / MEAN CORPUSCULAR HEMOGLOBIN CONCENTRATION / MEAN CORPUSCULAR VOLUME / MONOCYTE / NEUTROPHIL / NUCLEATED RED BLOOD CELLS / PLATELET COUNT: tissue Blood; for ALANINE AMINOTRANSFERASE / ALBUMIN / ALKALINE PHOSPHATASE / ASPARTATE AMINOTRANSFERASE / BLOOD UREA NITROGEN / CARBON DIOXIDE / CHLORIDE / CHOLESTEROL / CREATINE PHOSPHOKINASE / CREATININE / GLUCOSE / LACTATE DEHYDROGENASE / LIPASE / PHOSPHORUS / POTASSIUM / SODIUM / TOTAL BILIRUBIN / TOTAL PROTEIN / URIC ACID: tissue Plasma

CC(C)(C)NCC(O)COc1cccc2c1CC(O)C(O)C2 (centres undefined) [NADOLOL]
ABSOLUTE BASOPHIL (72 h, time 3 day): 0 CELLS/uL | ABSOLUTE EOSINOPHIL (72 h, time 3 day): 179 CELLS/uL | ABSOLUTE LYMPHOCYTE (72 h, time 3 day): 10744.33 CELLS/uL | ABSOLUTE MONOCYTE (72 h, time 3 day): 0 CELLS/uL | ABSOLUTE SEGMENTED NEUTROPHIL (72 h, time 3 day): 1443.33 CELLS/uL | BASOPHIL (72 h, time 3 day): 0% | EOSINOPHIL (72 h, time 3 day): 1.33% | HEMATOCRIT (72 h, time 3 day): 32.37% | HEMOGLOBIN (72 h, time 3 day): 12.3 G/DL | LEUKOCYTE COUNT (72 h, time 3 day): 12.37 x10E3/uL | LYMPHOCYTE (72 h, time 3 day): 87.67% | MEAN CORPUSCULAR HEMOGLOBIN (72 h, time 3 day): 24.6 pg | MEAN CORPUSCULAR HEMOGLOBIN CONCENTRATION (72 h, time 3 day): 38 G/DL | MEAN CORPUSCULAR VOLUME (72 h, time 3 day): 64.77 fL | MONOCYTE (72 h, time 3 day): 0% | NEUTROPHIL (72 h, time 3 day): 11% | NUCLEATED RED BLOOD CELLS (72 h, time 3 day): 0 /100WBC | PLATELET COUNT (72 h, time 3 day): 1241.33 x10E3/uL | ALANINE AMINOTRANSFERASE (72 h, time 3 day): 51.33 u/L | ALBUMIN (72 h, time 3 day): 3.9 G/DL | ALKALINE PHOSPHATASE (72 h, time 3 day): 378.33 u/L | ASPARTATE AMINOTRANSFERASE (72 h, time 3 day): 79.33 u/L | BLOOD UREA NITROGEN (72 h, time 3 day): 16 mg/dL | CARBON DIOXIDE (72 h, time 3 day): 24.67 mmol/L | CHLORIDE (72 h, time 3 day): 109.33 MEQ/L | CHOLESTEROL (72 h, time 3 day): 85 mg/dL | CREATINE PHOSPHOKINASE (72 h, time 3 day): 126 u/L | CREATININE (72 h, time 3 day): 0.15 mg/dL | GLUCOSE (72 h, time 3 day): 170 mg/dL | LACTATE DEHYDROGENASE (72 h, time 3 day): 86.33 u/L | LIPASE (72 h, time 3 day): 8 u/L | PHOSPHORUS (72 h, time 3 day): 14.57 mg/dL | POTASSIUM (72 h, time 3 day): 7.08 MEQ/L | SODIUM (72 h, time 3 day): 148.37 MEQ/L | TOTAL BILIRUBIN (72 h, time 3 day): 0.17 mg/dL | TOTAL PROTEIN (72 h, time 3 day): 5.63 G/DL | URIC ACID (72 h, time 3 day): 2.2 mg/dL | ABSOLUTE BASOPHIL (120 h, time 5 day): 0 CELLS/uL | ABSOLUTE EOSINOPHIL (120 h, time 5 day): 191.67 CELLS/uL | ABSOLUTE LYMPHOCYTE (120 h, time 5 day): 13307.33 CELLS/uL | ABSOLUTE MONOCYTE (120 h, time 5 day): 0 CELLS/uL | ABSOLUTE SEGMENTED NEUTROPHIL (120 h, time 5 day): 867.67 CELLS/uL | BASOPHIL (120 h, time 5 day): 0% | EOSINOPHIL (120 h, time 5 day): 1.33% | HEMATOCRIT (120 h, time 5 day): 33.3% | HEMOGLOBIN (120 h, time 5 day): 12.53 G/DL | LEUKOCYTE COUNT (120 h, time 5 day): 14.37 x10E3/uL | LYMPHOCYTE (120 h, time 5 day): 92.67% | MEAN CORPUSCULAR HEMOGLOBIN (120 h, time 5 day): 23.37 pg | MEAN CORPUSCULAR HEMOGLOBIN CONCENTRATION (120 h, time 5 day): 37.67 G/DL | MEAN CORPUSCULAR VOLUME (120 h, time 5 day): 62.2 fL | MONOCYTE (120 h, time 5 day): 0% | NEUTROPHIL (120 h, time 5 day): 6% | NUCLEATED RED BLOOD CELLS (120 h, time 5 day): 0 /100WBC | PLATELET COUNT (120 h, time 5 day): 1258.33 x10E3/uL | ALANINE AMINOTRANSFERASE (120 h, time 5 day): 44.67 u/L | ALBUMIN (120 h, time 5 day): 3.9 G/DL | ALKALINE PHOSPHATASE (120 h, time 5 day): 343 u/L | ASPARTATE AMINOTRANSFERASE (120 h, time 5 day): 80 u/L | BLOOD UREA NITROGEN (120 h, time 5 day): 16.33 mg/dL | CARBON DIOXIDE (120 h, time 5 day): 25.33 mmol/L | CHLORIDE (120 h, time 5 day): 103.67 MEQ/L | CHOLESTEROL (120 h, time 5 day): 74 mg/dL | CREATINE PHOSPHOKINASE (120 h, time 5 day): 262 u/L | CREATININE (120 h, time 5 day): 0.21 mg/dL | GLUCOSE (120 h, time 5 day): 152.33 mg/dL | LACTATE DEHYDROGENASE (120 h, time 5 day): 268.33 u/L | LIPASE (120 h, time 5 day): 8 u/L | PHOSPHORUS (120 h, time 5 day): 13 mg/dL | POTASSIUM (120 h, time 5 day): 6.63 MEQ/L | SODIUM (120 h, time 5 day): 146.2 MEQ/L | TOTAL BILIRUBIN (120 h, time 5 day): 0.13 mg/dL | TOTAL PROTEIN (120 h, time 5 day): 5.7 G/DL | URIC ACID (120 h, time 5 day): 1.47 mg/dL

— ChEMBL document CHEMBL3885881, “DrugMatrix”
